Test [1] addresses T1, trehalose receptor (G protein α-subunits and T1R3) (Mus musculus, UniProt Q925D8, I706N).
T1 construct: expressed in transfected cells; host or cells: 293 cells, RCB 1637 (human embryonic kidney)
T1 sequence (Q925D8 21-858 I706N): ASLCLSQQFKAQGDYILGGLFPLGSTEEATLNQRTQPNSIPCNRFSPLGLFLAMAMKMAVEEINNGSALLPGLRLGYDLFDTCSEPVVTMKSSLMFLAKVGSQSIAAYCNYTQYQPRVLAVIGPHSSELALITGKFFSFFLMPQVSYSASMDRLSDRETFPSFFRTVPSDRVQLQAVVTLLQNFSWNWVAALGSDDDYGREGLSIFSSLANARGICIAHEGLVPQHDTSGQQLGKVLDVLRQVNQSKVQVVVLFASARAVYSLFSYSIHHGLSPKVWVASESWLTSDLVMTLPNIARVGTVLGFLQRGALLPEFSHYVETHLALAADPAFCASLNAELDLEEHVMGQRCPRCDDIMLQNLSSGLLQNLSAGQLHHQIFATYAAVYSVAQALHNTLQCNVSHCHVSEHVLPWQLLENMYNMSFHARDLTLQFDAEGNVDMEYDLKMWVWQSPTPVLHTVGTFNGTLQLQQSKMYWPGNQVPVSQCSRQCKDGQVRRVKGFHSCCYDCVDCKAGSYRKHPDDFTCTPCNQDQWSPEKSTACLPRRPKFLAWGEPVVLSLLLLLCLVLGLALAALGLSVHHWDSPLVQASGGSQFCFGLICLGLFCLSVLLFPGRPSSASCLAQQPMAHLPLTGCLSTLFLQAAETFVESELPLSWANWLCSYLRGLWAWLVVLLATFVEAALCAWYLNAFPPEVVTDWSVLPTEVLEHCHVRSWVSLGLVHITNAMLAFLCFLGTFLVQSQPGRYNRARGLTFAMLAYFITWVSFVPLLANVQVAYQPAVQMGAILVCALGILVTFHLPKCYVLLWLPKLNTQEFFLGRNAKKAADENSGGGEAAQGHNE
Description: Quantitation of trehalose using trehalose receptor, 96-well microplate fluorescence assay. It counts as cell-based. Conditions: for Fluorescence intensity (integral value): 0.1 ml/well added to 100 µl cell suspension, ex 494 nm, em 516 nm. As for the experimental part: The captioned reactivity test was conducted according to a conventional intracellular calcium ion assay: 293 Cells prepared in Example 3, capable of coexpressing the G protein α-subunits and the sweet taste receptor(s), were cultured in a plastic petri dish for cell culture until reaching its confluent phase. Thereafter, the cells were detached from the inner surface of the petri dish with a 0.05% (v/v) trypsin solution and a 0.53 mM EDTA solution, suspended in D-MEM supplemented with 10% (v/v) fetal calf serum to give a cell density of 1×10^6 cells/ml, and allowed to intake “FLUO-4. AM”, a reagent for detecting intracellular calcium ion commercialized by Molecular Probes Inc., Ore., USA, by adding to the cell suspension to give a final concentration of 2 μM and incubating the cells at 37 ° C. for 30 to 90 min. The resulting cells were washed with a buffer for detecting calcium ion, which contained 10 mM HEPES (pH 7.4), 130 mM sodium chloride, 5.4 mM potassium chloride, 2 mM calcium chloride, 1 mM magnesium chloride, 5.5 mM D-glucose, 0.1% (v/v) calf serum albumin, and 1 mM sodium pyruvate to remove the reagent remained extracellularly; suspended in a fresh preparation of the same buffer to give a cell density of 2.67 ×10^7 cells/ml; filtered with a membrane with a pore size of 100 μm mesh; and allowed to stand at 25° C. for 30 min. Two milliliters of the resultant cell suspension was injected into a glass cuvette, commercialized by Hitachi, Ltd., Tokyo, Japan, and analyzed on “HITACHI 650-40”, a fluorescence spectrophotometer commercialized by Hitachi, Ltd., Tokyo, Japan.
One hundred microliter aliquots of the cell suspension in Example 4 were placed in commercially available 96-well microplates, followed by placing 0.1 ml/well of any of trehalose solutions with different concentrations of 1, 2, 5, 10, 20, 50, 100, 200, 500, 1,000, and 2,000 mM, prepared with trehalose and the same buffer for calcium ion assay as used in Example 4; and assayed on “FLUOROSCAN ASCENT W/DF”, an automatic fluorescence spectrophotometer for multi-plates, Dainippon Pharmaceutical Co., Ltd., Tokyo, Japan, at an excitation wavelength of 494 nm and a fluorescence wavelength of 516 nm, followed by calculating the integral values for the detected fluorescence intensities.

The conditions of test [2]: relative to sucrose; cited from earlier work.

We go through one compound from patent publication US20050048508A1, “Trehalose receptor and method for detecting trehalose with the same” (KABUSHIKI KAISHA HAYASHIBARA SEIBUTSU KAGAKU KENKYUJO, priority 2002, published 2005).

Regarding `OC[C@H]1O[C@H](O[C@H]2O[C@H](CO)[C@@H](O)[C@H](O)[C@H]2O)[C@H](O)[C@@H](O)[C@@H]1O` [Trehalose], the “Concentration at which trehalose is detectable” value in test [1] (trehalose receptor cells, fluorescence assay of Table 5) was no less than 5 mM. Besides, the “Fluorescence intensity (integral value)” value in test [1] (trehalose solution 1 mM) stood at 0.2; in test [1] (trehalose solution 2 mM) it was 0.5; in test [1] (trehalose solution 5 mM), 10; in test [1] (trehalose solution 10 mM), 19; in test [1] (trehalose solution 20 mM), 29; in test [1] (trehalose solution 50 mM), 45. Also, the “Fluorescence intensity (integral value)” value stood at 82 in test [1] (trehalose solution 100 mM); 159 in test [1] (trehalose solution 200 mM); 421 in test [1] (trehalose solution 500 mM); 670 in test [1] (trehalose solution 1,000 mM); 720 in test [1] (trehalose solution 2,000 mM). The Sweetening power in test [2] was 45%.
